Results taken from US11944688B2, “Biologically active compounds” (SUTURA THERAPEUTICS LTD, priority 2015, dated 2024).
Positions of bridges follow the written chain, without caps; N, C: chain ends. Non-standard residues stand in square brackets, D forms with d. No end group written: not given here. {FITC} = fluorescein isothiocyanate label; S5 = C=CCCC[C@](C)(N)C(=O)O; {NH2} = amine group

Columns and labels:
HEK293T cells = experiment: Uptake into HEK293T cells by flow cytometry; format: cell-based, human; conditions: 4 hours
Description: FIG. 11 is the analysis of PMO uptake into HEK293T cells by flow cytometry. Cells were incubated without PMO or with 1 μM PMO, 1 μM PMO-C8M or 1 μM PMO-CP8M-NC (all fluorescein-labelled) at 37° C. for 4 hours. Fluorescence was measured after washing the cells with PBS.
HEK293T cells (Human embryonic kidney) were cultured in high glucose DMEM supplemented with 10% foetal calf serum (Sigma, UK) at 37° C. under an 8% CO2/92% air atmosphere.
(§1) U2OS cells were incubated with PMO or PMO-CP8M at increasing concentration (0.5 μM, 1.0 μM, 5.0 μM and 10 μM) with […] transfection reagent; H2K mdx mouse myoblasts were incubated with PMO or PMO-CP8M at 5.0 μM: HEK293T cells were incubated with CP8M (1.0 μM, 10 μM and 100 μM) and PMO, PMO-CP8M-NC, PMO-C8M at 1.0 μM. Levels of fluorescence was quantified at 494 nm to determine relative entry of respective compounds by microscopic or flow cytometry methodologies.
Uptake of fluorescently-labelled PMO was determined by flow cytometry using an Accuri C6 flow cytometer. PMO-transfected cells were released with trypsin, washed in PBS and kept on ice before analysis. Cell fluorescence in single live cells was determined using FlowJo software after appropriate gating. Untreated cells were used to establish gating settings for the determination of the % fluorescein-positive cells.

dystrophin [1] = experiment: Dystrophin immunostaining of Tibialis anterior after intramuscular injection in mdx mice; format: in vivo; conditions: single intramuscular 2.2 nmol, 7 days post-administration, n=4
Description: Muscles were recovered 7 day post administration;
All dose are given in respect of the molarity of PMO;
(§2) mdx mice, with access to chow and water ad libitum, were used in all experiments. All experiments were carried out in the Animal unit, School of Biological Science, University of Reading, Reading, UK according to procedures authorized by the UK Home Office. Mice were killed by CO2 inhalation or cervical dislocation at desired time points, and muscles and other tissues were snap-frozen in liquid nitrogen-cooled isopentane and stored at −80° C.
(§3) Intramuscular administrations: Tibialis anterior muscles of mdx mice were injected with either 2.2 nmol PMO or 2.2 nmol PMO-CP8M under isoflurane anaesthesia. […]
(§4) For skeletal muscle, heart and brain, […] cryosections were cut and dystrophin protein was detected using rabbit polyclonal antibody to dystrophin (ab15277; Abcam, Cambridge, UK). […] For liver, […] cryosections were dried and embedded in fluorescence-compatible mounting medium (Dako), and general fluorescence was assessed microscopically at 494 nm.

U2OS cells = experiment: Delivery of fluorescently labelled PMO into U2OS cells, fluorescence microscopy; format: cell-based, human; conditions: 0.5-10 μM, 4 hours, without transfection reagent
Description: The biologically active compound was a PMO with a sequence:
(an antisense reagent targeted to exon 23 of the mouse dystrophin gene, that causes the exclusion of exon 23 during mRNA splicing maturation); the bi-functional linker was a PEGylated SMCC; and the StaP was RKF-S5-RLF-S5 (SEQ ID NO: 57). This configuration of DCCPM is depicted as PMO-CP8M in the subsequent figs; unconjugated PMO acts as a control. All compounds were added to U2OS cells maintained in culture, without transfection reagent for 4 hours;
U2OS cells (Human osteosarcoma) were cultured in high glucose DMEM supplemented with 10% foetal calf serum (Sigma, UK) at 37° C. under an 8% CO2/92% air atmosphere.
as §1

dystrophin [2] = experiment: Dystrophin immunostaining of cerebellum after systemic administration in mdx mice; format: in vivo; conditions: single 1 μmol/kg intravenous, without fluorescent label, 7 days, n=1 per group
Description: All dose are given in respect of the molarity of PMO [* denotes non fluorescent labelled PMO]. Cerebella were recovered 7 days post administration; and
as §2, §3, §4

H2K mdx mouse myoblasts = experiment: Delivery of fluorescently labelled PMO into H2K mdx myoblasts, fluorescence microscopy; format: cell-based; conditions: 5 μM, without transfection reagent
Description: (§5) H2K mdx mouse myoblasts were cultured at 33° C. under a 8% CO2/92% air atmosphere in high-glucose DMEM supplemented with 20% foetal calf serum, 0.5% chicken embryo extract (PAA laboratories Ltd, Yeovil, UK), and 20 units/ml γ-interferon (Roche applied science, Penzberg, Germany). Cells were then treated with trypsin and plated at 8×10^4/cm^2 in 24-well plates coated with 0.1 mg/ml ECM gel (Sigma). H2K mdx cells were transfected 24 h after seeding with treatment in a final volume of 0.2 ml of normal growth media. Following 4 hours of transfection, the PMO or PMO-SAP was removed and replaced with DMEM supplemented with 5% horse serum. Fluorescence and RNA extraction was performed 48 hours post transfection.
as §1

dystrophin [3] = experiment: Dystrophin immunostaining of heart muscle after intraperitoneal administration in mdx mice; format: in vivo
Text: FIG. 18a is of mdx mice following a single intraperitoneal injection of 1 μmol/kg PMO-CP8M or 1 μmol/kg PMO. Muscles were recovered 7 days post administration;
FIG. 18b is following multiple intraperitoneal injections—total 7.6 μmol/kg PMO-CP8M or 7.6 μmol/kg PMO. Muscles were recovered 14 days post administration;
FIG. 18c is following multiple intraperitoneal injections—total 10.9 μmol/kg PMO-CP8M or 10.9 μmol/kg PMO;
FIG. 18d is a graphical representation of the number of cardiac muscle fibre being positive for an immuno-cytochemical staining for dystrophin following a multiple intraperitoneal injections—total 7.6 μmol/kg PMO-CP8M or 7.6 μmol/kg PMO; and
FIG. 18e is a graphical representation of the number of cardiac muscle fibre being positive for an immuno-cytochemical staining for dystrophin following multiple intraperitoneal injections—total 10.9 μmol/kg PMO-CP8M or 10.9 μmol/kg PMO. All dose are given in respect of the molarity of PMO [* denotes non fluorescent labelled PMO]. Hearts were recovered 14 days post administration;
Hearts were recovered 14 days post administration;
as §2, §3, §4

[4] = system: exon 23 of the mouse dystrophin gene; experiment: Exon 23 exclusion in H2K mdx cells, nested RT-PCR; format: cell-based; conditions: 5 μM, RT-PCR 901 bp full length / 688 bp exon 23 excluded
Description: 24 hours after incubation with PMO-CP8M or PMO, H2K mdx cells were recovered and RNA isolated. The RNA was reversed transcribed and an amplification between exon 20 and 26 of the mouse dystrophin gene, followed by a nested amplification between exon 20 and 26 was performed to yield a full length product of 901 bp fragment if exon 23 is present or 688 bp fragment if exon 23 is excluded;
as §5
Total RNA was isolated from H2K mdx mouse myoblasts cells (RNeasy, Qiagen, UK). […]

| Substance | cellular entry of FITC-labelled CP8M charge variants (HEK293T cells; HEK293T, 1.0, 10 and 100 μM, without transfection reagent) | percentage of dystrophin re-expression (dystrophin [1]) | fluorescence signal (cell entry) (U2OS cells) | dystrophin expression in Purkinje cells of cerebellum (dystrophin [2]) | muscle cell entry (H2K mdx mouse myoblasts) | cell entry of fluorescein-labelled PMO (HEK293T cells; HEK293T, 1 μM, 37° C.) | dystrophin-positive heart muscle fibres, 7.6 μmol/kg (dystrophin [3]; intraperitoneal total 7.6 μmol/kg over 4 days, without fluorescent label, 2 weeks post-administration, n=4, mean±SEM) | dystrophin-positive heart muscle fibres, 10.9 μmol/kg (dystrophin [3]; intraperitoneal total 10.9 μmol/kg over 2 days, n=4, mean±SEM) | dystrophin-positive heart muscle fibres, single low dose (dystrophin [3]; single intraperitoneal 1 μmol/kg, 7 days, n=1 per group) | exclusion of exon 23 from the dystrophin transcript [4] |
| --- | --- | --- | --- | --- | --- | --- | --- | --- | --- | --- |
| CP8M: CPP sequence RKF-S5-RLF-S5 (SEQ ID NO: 57) with PEGylated SMCC as BFL (RKF[S5]RLF[S5]-NH2; staple 4-8; also: PEGylated SMCC as BFL, attachment not given here) | dose dependent increase | – | – | – | – | – | – | – | – | – |
| PMO: PMO 5′GGCCAAACCTCGGCTTACCTGAAAT3′ targeted to exon 23 of mouse dystrophin gene; 5′ amine, 3′ FITC label; unconjugated control (all phosphorodiamidate morpholino (PMO), 5' {NH2}, 3' {FITC}) | – | 762.25 | only a background fluorescence signal | No dystrophin expression was observed | refractory to muscle cell entry | refractory to cell entry | 57±17 fibres | 33±8 fibres | not | lack of exon exclusion |
